According to US8637040B2, “Genus-wide chlamydial peptide vaccine antigens” (priority 2008, dated 2014):

Experiments:
Pep4, Pep7, Pep8, Pep10 = assay: Cross-reactivity between peptides in ELISA; assay type: binding; settings: sera of mice immunized with a single peptide
Procedure: (§1) Blood was collected prior to immunizations and prior to the two boosts. Sera were tested in ELISA. The ELISA method used in the present examples, in which many if not all the parameters and conditions may be varied or modified in ways that are completely conventional in the art, is described below. • 1. 96 well plates (Immulon HBX4) were coated with 50 μl of diluted antigen (peptides at 1 μg/well made in carbonate buffer) and incubated overnight at 4° C. • 2. Unbound antigen was removed by flicking the contents of the plate into a sink without further washing. • 3. Non-specific binding was blocked or prevented by adding 300 μL/well of 4% BSA/PBS-Tween 20 (0.05%). This was allowed to incubate for 2 hour at room temperature. • 4. The plates were washed once with PBS-Tween 20 (0.05%) and 50 μl of primary antibody was added per well at appropriate dilutions. When using serum, the starting dilution was 1:40 and was further diluted by doublings to 1:80, 1:160, and 1:320 (or higher as desired). Plates were incubated for 1 hour at 37° C. • 5. Plates were washed three times with PBS-Tween (0.05%) as above and 100 μl of secondary antibody was added per well at appropriate dilutions. For alkaline phosphatase-conjugated goat anti-mouse IgG-AP, a dilution of 1:500 was used here. Plates were incubated for 1 hour at 37° C. • 6. Plates were again washed three times as above and 200 μl of substrate solution for Alkaline phosphatase (p-nitro phenyl phosphate or pNPP) was added at a concentration of 5 mg/ml. The color reaction was read in an automated microplate reader at a frequency of […] and the absorbance (or optical density) was registered (referred to as A405 or OD405) Several important observations were made in these tests against the 4 peptides: (a) all 4 peptides were immunogenic and induced increasing anti-peptide responses with subsequent boosts in all mice (except in one non-responder) (FIG. 3). […] See also FIG. 16A-16B
Both of these are category #1 peptides. […] That supports the notion that CDR1 and CDR3 of mAb2 are antigenically distinct.

[1] = system: C. trachomatis-infected HEp2 cells; assay: Indirect immunofluorescence of immune sera on infected HEp2 cells; assay type: cell-based, human; settings: sera 1:40 dilution, FITC anti-mouse IgG
Description: Micrographs of HEp2 cells infected with C. trachomatis are immunostained (by indirect immunofluorescence) with sera (1:40 dilution) from mice immunized with the designated peptides (A-E) or soluble. mAb2 (F). FITC anti-mouse IgG was the detecting antibody. Arrows point to distinct differences in targets of the immune sera. Antibodies in panels A-C recognized EB and RB and possibly some matrix material in the inclusion. Antibodies in D-E also recognized targets in the inclusion matrix and inclusion membrane, similar to immune sera raised against the older vaccine candidate, the entire mAb2 (F). 40× original magnification. Samples are counterstained with Evans blue.
HEp2 cells were infected with C. trachomatis were subjected to cytocentrifugation to deposit them onto microscope slides. After fixation (MeOH) they were stained with sera (1:40 dilution) from mice immunized with the indicated peptides or with soluble mAb2. The binding of the antibodies to the cells was detected using a fluorescent (FITC-labeled) secondary Ab, an anti-mouse IgG. Results appear in FIGS. 9A-F.

C trachomatis = assay: DFA staining of vaginal smears after challenge of peptide-immunized mice; assay type: in vivo, mouse; settings: mice immunized three times at 100 μg doses; days 7 and 14 post-challenge
Description: Mice are challenged with a human biovar of C trachomatis (K or E serovars for urogenital infections; C or B serovars for ocular infection).
Groups of 4-8 mice are “masked” as to pretreatment before challenge with live elementary bodies (EB). At weekly intervals through at least 4 wks, vaginal (or conjunctival) swabs are collected for isolation culture and direct fluorescence antibody staining for EB.
Using the murine models described above, the present inventors immunized mice with one of the four peptides (Pep4, 7, 8 or 10) administered three times at 100 μg doses. Results of direct fluorescent antibody (DFA) staining are summarized for days 7 and 14 post-challenge in FIGS. 10-11.

human sera = assay: ELISA of human serum samples on 4 peptides (Example XI); assay type: binding
Procedure: as §1
Human sera were tested by PCR for expression of several chlamydial genes, by IHC against C. trachomatis-infected cells and by ELISA against several of the peptides of the present invention. Results are shown in Table 7 (below) which include results from PCR-studies for presence of DNA encoding the chlamydial Major Outer Membrane Protein (MOMP) in human peripheral blood mononuclear cells (PBMC) (which are primarily lymphocytes and monocytes) and cervical swabs
Also shown is IHC staining of C. trachomatis-infected human HEp2 cells and binding of antibodies in the patient samples to four peptides of the present invention (Pep4, 7, 8, and 10) in ELISA.

chlamydia = assay: Gross anatomical observation of genital tract inflammation after challenge; assay type: in vivo, mouse; settings: female mice primed and boosted twice SC, necropsy ~28 days post-challenge, vs adjuvant-only control
Description: FIG. 15A-15C is a set of three photographs showing the gross morphology of tissues of the female reproductive tract of mice immunized and then challenged 28 days earlier with Pep4 or Pep7. Mice had been primed and boosted twice SC, as above, and were challenged with chlamydia 2 weeks later, rechallenged and sacrificed 4 weeks after re-challenge. Inflamed genital tracts outlined in dashed lines.
Genital tracts were exposed at necropsy ˜28 days post-challenge to score inflammatory changes (and then removed for histological analysis). […] Representative examples for recipients of Peptides 4 and 7 are shown in the center and right panels, respectively. Yellow arrows point to uterine horns (which are further demarcated with dashed lines). It is evident that the peptide immunogens reduced the gross pathology of the genital tract even weeks after challenge. This has been reproduced in a second experiment in which control mice received an irrelevant peptide instead of Peptides 4 or 7. Based on what is known in the art from other contexts, the histopathological results are expected to be consistent with these gross anatomical observations.

Row | Sequence | structures recognized by immune sera in infected cells [1] | ELISA 1:40 on 4 peptides Scale: 1+-3+ (human sera; human serum sample # 1) | ELISA 1:40 on 4 peptides Scale: 1+-3+ (human sera; human serum sample # 2) | ELISA 1:40 on 4 peptides Scale: 1+-3+ (human sera; human serum sample # 3) | ELISA 1:40 on 4 peptides Scale: 1+-3+ (human sera; human serum sample # 5) | ELISA 1:40 on 4 peptides Scale: 1+-3+ (human sera; human serum sample # 7) | ELISA 1:40 on 4 peptides Scale: 1+-3+ (human sera; human serum sample # 8) | ELISA 1:40 on 4 peptides Scale: 1+-3+ (human sera; human serum sample # 9) | ELISA 1:40 on 4 peptides Scale: 1+-3+ (human sera; human serum sample # 10) | ELISA 1:40 on 4 peptides Scale: 1+-3+ (human sera; human serum sample # 12) | ELISA 1:40 on 4 peptides Scale: 1+-3+ (human sera; human serum sample # 13) | ELISA 1:40 on 4 peptides Scale: 1+-3+ (human sera; human serum sample # 16) | ELISA 1:40 on 4 peptides Scale: 1+-3+ (human sera; human serum sample # 18) | ELISA 1:40 on 4 peptides Scale: 1+-3+ (human sera; human serum sample # 21) | ELISA 1:40 on 4 peptides Scale: 1+-3+ (human sera; human serum sample # 22) | ELISA 1:40 on 4 peptides Scale: 1+-3+ (human sera; human serum sample # 23) | ELISA 1:40 on 4 peptides Scale: 1+-3+ (human sera; human serum sample # 24) | ELISA 1:40 on 4 peptides Scale: 1+-3+ (human sera; human serum sample # 26) | further results
1 | GYTFTDYSMH [Pep8] | recognized targets in the inclusion matrix and membrane | 2 | 1 | 2.5 | 2 | 1 | 3 | 3 | 2 | 2 | 2 | 1.5 | 3 | 3 | 1.5 | 1.5 | 2 | 2 | cross-reactivity of raised Abs with Peps 4, 7 or 10 (ELISA) (Pep4, Pep7, Pep8, Pep10): did not cross-react; bacterial shedding measured by DFA staining (C trachomatis): reduced bacterial shedding
2 | HALMPATAVASL [Pep7] | recognized EB and metabolically active, non-infectious reticulate bodies (RB) | 1.5 | 1 | 2.5 | 2 | 0.75 | 3 | 3 | 2 | 1.5 | 2 | 1.5 | 3 | 2 | 1.5 | 1.5 | 1.5 | 2 | cross-reactivity of raised Abs with Pep4 (ELISA) (Pep4, Pep7, Pep8, Pep10): cross reacted; gross inflammation / pathology of the genital tract (chlamydia): not nearly as inflamed
3 | RYDVGGDHYYFTMD [Pep10] | recognized targets in the inclusion matrix and membrane | 2 | 1 | 2.5 | 1.5 | 1 | 3 | 3 | 2 | 2 | 2 | 1 | 2 | 3 | 2 | 1 | 2 | 1.5 | 
